Source: patent US8623429B2, “Stabilized anthocyanin compositions” (Omnica GmbH, priority 2007, dated 2014)

Columns and labels:
Type in all cases: physicochemical
[1] = Example 3: stability of black currant extract anthocyanosides, 4 hours at 37° C., pH 7.0, with/without DHLA, GSH or L-cysteine (HPLC)
Method: (§1) Sample a) 60 mg black currant extract [35% anthocyanosides] (0.037 mmol anthocyanosides expressed as cyanidin-3-O-rutinoside) were added to a 100 ml flask and filled to volume with sodium phosphate buffer (5% [w/w], pH=7.0) and stirred until dissolution was complete. A 1 ml sample was taken immediately, acidified with formic acid to pH=1.0 and analyzed by HPLC for the content of anthocyanosides (Fresh Sample). The remaining solution was kept for 4 hours at 37° C. (water bath) with stirring. Thereafter samples (Blank sample), representing unprotected degradation, were taken and acidified.
Sample b) 20 mg reduced L-glutathione (0.065 mmol) were added to a 100 ml flask with 60 ml sodium phosphate buffer (5% [w/w], pH=7.0) and stirred until dissolution was complete. 60 mg black currant extract [35% anthocyanosides] (0.037 mmol anthocyanosides expressed as cyanidin-3-O-rutinoside) were then added and the flask was filled to volume with sodium phosphate buffer (5% [w/w], pH=7.0) and kept for 4 hours at 37° C. (water bath) with stirring.
Sample c) 20 mg dihydrolipoic acid (0.096 mmol) were added to a 100 ml flask with 60 ml sodium phosphate buffer (5% [w/w], pH=7.0) and stirred until dissolution was completed. 60 mg black currant extract [35% anthocyanosides] (0.037 mmol anthocyanosides expressed as cyanidin-3-O-rutinoside) were added to the flask, filled to volume with sodium phosphate buffer (5% [w/w], pH=7.0) and kept for 4 hours at 37° C. (water bath) with stirring.
Sample d) 20 mg L-cysteine acid (0.165 mmol) were added to a 100 ml flask with 60 ml sodium phosphate buffer (5% [w/w], pH=7.0) and stirred until dissolution was complete. 60 mg black currant extract [35% anthocyanosides] (0.037 mmol anthocyanosides expressed as cyanidin-3-O-rutinoside) were added to the flask, filled to volume with sodium phosphate buffer (5% [w/w], pH=7.0) and kept for 4 hours at 37° C. (water bath) with stirring.
After 4 hours samples were taken, acidified immediately with formic acid to pH=1.0 and analyzed by HPLC for the content of anthocyanosides. Degradation is expressed as decrease in peak area of individual peaks (calculated as % left after 4 hours).
(§2) Samples were prepared as outlined below in HPLC Analytical Method. Test stability samples were immediately acidified (to block degradation) and injected undiluted following the detailed description provided below.
HPLC Analytical Method (Materials, Instruments and Methods): […]

[2] = Example 9: stability of bilberry extract anthocyanosides, 4 hours at 37° C., pH 7.0, with/without L-cysteine
Method: Sample a) 60 mg bilberry extract [37% anthocyanosides] (0.048 mmol anthocyanosides expressed as cyanidin-3-O-glucoside) were added to a 100 ml flask with 60 ml sodium phosphate buffer (5% [w/w], pH=7.0), and stirred until dissolution was complete. A 1 ml sample was taken immediately and acidified with formic acid to pH=1.0 and analyzed by HPLC for the content of anthocyanosides (Fresh Sample). The remaining solution was kept for 4 hours at 37° C. (water bath) with stirring. Thereafter another sample (Blank sample), representing unprotected degradation, was taken and acidified.
Sample b) 20 mg L-cysteine […] were added to a 100 ml flask with 60 ml sodium phosphate buffer (5% [w/w], pH=7.0) and stirred until dissolution was complete. 60 mg bilberry extract [37% anthocyanosides] (0.048 mmol expressed as cyanidin-3-O-glucoside) were then added to the flask and stir to fully dissolve, then kept for 4 hours at 37° C. (water bath) with stirring.
After 4 hours, samples were taken and acidified immediately with formic acid to pH=1.0 and analyzed by HPLC for the content of anthocyanosides. Degradation is expressed as decrease in peak area of individual peaks (calculated as % left after 4 hours).
Samples were prepared as outlined above in the HPLC Analytical Method. Test stability samples were immediately acidified (to block degradation) and injected undiluted following the detailed description provided below.

[3] = Example 5: degradation over time of black currant anthocyanosides at 37° C., pH 7.0, with/without GSH (HPLC); details: pH 7.0, 37° C.; for %-residual anthocyanosides (% left): 4 hours
Method: as §1, with “flask,” for “flask and”, “anthocyanosides.” for “anthocyanosides (Fresh Sample).”, “kept” for “kept for 4 hours”, “stirring and 1 ml” for “stirring. Thereafter”, “Samples),” for “sample),”, “every 15 minutes. The samples were analyzed for selected anthocyanosides by HPLC.” for “and acidified.”
Sample b) 20 mg reduced L-glutathione (0.065 mmol) were added to a 100 ml flask with 60 ml sodium phosphate buffer (5% [w/w], pH=7.0) and stirred until dissolution was complete. 60 mg black currant extract [35% anthocyanosides] (0.037 mmol anthocyanosides expressed as cyanidin-3-O-rutinoside) were added, the flask was filled to volume with sodium phosphate buffer (5% [w/w], pH=7.0) and kept for at 37° C. (water bath) with stirring. Every 15 minutes 1 ml samples were taken and analyzed for selected anthocyanosides by HPLC.
as §2

[4] = Example 1: stability of bilberry extract anthocyanosides, 4 hours at 37° C., pH 7.0, with/without DHLA or GSH (HPLC)
Method: (0.048 mmol anthocyanosides expressed as cyanidin-3-O-glucoside) were added to a 100 ml flask and filled to volume with sodium phosphate buffer (5% [w/w], pH=7.0), and stirred until dissolution was complete. A 1 ml sample was taken immediately and acidified with formic acid to pH=1.0 and analyzed by HPLC for the content of anthocyanosides (Fresh Sample). The remaining solution was kept for 4 hours at 37° C. (water bath) with stirring. Thereafter another sample (Blank sample), representing unprotected degradation, was taken and acidified.
(0.048 mmol expressed as cyanidin-3-O-glucoside) were then added and the flask was filled to volume with sodium phosphate buffer (5% [w/w], pH=7.0) and kept for 4 hours at 37° C. (water bath) with stirring.
Quantitation: External standardization based on linear regression analysis. The response factors of all anthocyanosides separated is quantitified against cyanidin-3-O-glucoside.
Test solutions from incubation experiments (with/without cells and with/without stabilizing agents) were used for analysis after stabilization of anthocyanosides with formic acid. Samples were cleared by filtration prior to injection on to HPLC-system.

[5] = unprotected, pH 7.0, 37° C., 4 hours
[6] = 20 mg reduced L-glutathione, pH 7.0, 37° C., 4 hours
[7] = 30 mg dihydrolipoic acid, pH 7.0, 37° C., 4 hours

OC[C@H]1O[C@@H](Oc2cc3c(O)cc(O)cc3[o+]c2-c2ccc(O)c(O)c2)[C@H](O)[C@@H](O)[C@@H]1O [Cn-3O-Glc, Cyanidin 3-o-glucoside]
Peak Area, Fresh solution ([1]; black currant extract 60 mg/100 ml buffer pH 7.0, fresh sample): 491.1
% left, DHLA 20 mg ([1]; pH 7.0, 37° C., 4 hours): 51.7%
% left, GSH 20 mg ([1]; pH 7.0, 37° C., 4 hours): 64.3%
% left, L-cysteine 20 mg ([1]; pH 7.0, 37° C., 4 hours): 38.0%
Peak Area, DHLA 20 mg ([1]; pH 7.0, 37° C., 4 hours): 254.1
Peak Area, GSH 20 mg ([1]; pH 7.0, 37° C., 4 hours): 315.7
Peak Area, L-cysteine 20 mg ([1]; pH 7.0, 37° C., 4 hours): 186.8
% left, Blank [1, 5]: 31.4%
Peak Area, Blank [1, 5]: 154.0
Peak Area, Fresh solution ([2]; bilberry extract 60 mg in buffer pH 7.0, fresh sample): 987.9
% left, L-cysteine 20 mg ([2]; pH 7.0, 37° C., 4 hours): 80.7%
Peak Area, L-cysteine 20 mg ([2]; pH 7.0, 37° C., 4 hours): 797.5
% left, Blank [2, 5]: 41.5%
Peak Area, Blank [2, 5]: 410.3
Peak Area ([3]; Blank sample, 0:00 h): 491.1
Peak Area ([3]; Blank sample, 0:15 h): 368.9
Peak Area ([3]; Blank sample, 0:30 h): 361.9
Peak Area ([3]; Blank sample, 0:45 h): 321.0
Peak Area ([3]; Blank sample, 1:00 h): 312.0
Peak Area ([3]; Blank sample, 1:30 h): 293.4
Peak Area ([3]; Blank sample, 1:45 h): 283.8
Peak Area ([3]; Blank sample, 2:00 h): 256.7
Peak Area ([3]; Blank sample, 2:15 h): 250.3
Peak Area ([3]; Blank sample, 2:30 h): 243.9
Peak Area ([3]; Blank sample, 2:45 h): 226.8
Peak Area ([3]; Blank sample, 3:00 h): 213.7
Peak Area ([3]; Blank sample, 3:15 h): 204.9
Peak Area ([3]; Blank sample, 3:30 h): 180.1
Peak Area ([3]; Blank sample, 3:45 h): 181.6
Peak Area ([3]; Blank sample, 4:00 h): 154.0
%-residual anthocyanosides (% left) ([3]; Blank): 31%
Peak Area ([3]; GSH protected sample (20 mg), 0:00 h): 480.6
Peak Area ([3]; GSH protected sample (20 mg), 0:15 h): 426.1
Peak Area ([3]; GSH protected sample (20 mg), 0:45 h): 418.6
Peak Area ([3]; GSH protected sample (20 mg), 1:00 h): 423.8
Peak Area ([3]; GSH protected sample (20 mg), 1:15 h): 415.3
Peak Area ([3]; GSH protected sample (20 mg), 1:45 h): 376.4
Peak Area ([3]; GSH protected sample (20 mg), 2:00 h): 387.6
Peak Area ([3]; GSH protected sample (20 mg), 2:15 h): 356.5
Peak Area ([3]; GSH protected sample (20 mg), 2:45 h): 337.5
Peak Area ([3]; GSH protected sample (20 mg), 3:00 h): 349.5
Peak Area ([3]; GSH protected sample (20 mg), 3:15 h): 325.6
Peak Area ([3]; GSH protected sample (20 mg), 3:45 h): 312.6
Peak Area ([3]; GSH protected sample (20 mg), 4:00 h): 315.7
Peak Area ([3]; GSH protected sample (20 mg), 4:15 h): 300.3
%-residual anthocyanosides (% left) ([3]; GSH-protected): 66%
% left, GSH (4 hours) [4, 6]: 80.7%
Peak Area, GSH (4 hours) [4, 6]: 797.5
% left, DHLA (4 hours) [4, 7]: 67.9%
Peak Area, DHLA (4 hours) [4, 7]: 671.1
Peak Area, Fresh (0 hours) ([4]; bilberry extract 60 mg/100 ml sodium phosphate buffer pH 7.0, fresh sample): 987.9
% left, Blank (4 hours) [4, 5]: 41.5%
Peak Area, Blank (4 hours) [4, 5]: 410.3
